Test results from patent publication US8030360B2, “Anti-wrinkle agent” (Kemphys Ltd., priority 2004, dated 2011).

What was measured:
guinea pig skin [1] = experiment: Cumulative skin irritancy test of a retinoid on guinea pig skin; type: in vivo
Experimental: (§1) Histological tests were conducted to study the irritancy of a retinoid on guinea pig skin and correlation between an irritancy threshold and a retinoid action threshold. Each of male guinea pigs of approximately in a weight of 600 g was applied once every day with 1, 5, 10, 50, or 100 ppm of retinoic acid (RA) or Am80 (4-[(5,6,7,8-tetrahydro-5,5,8,8-tetramethyl-2-naphthalenyl)carbamoyl]benzoic acid) as an ethanol solution on the dorsal skin (5 days a week). As a control, only the solvent (ethanol) was applied. The skin responses were evaluated according to the following 5-step criteria, and average values were calculated for each concentration of the drugs by using results obtained from three of the guinea pigs. • 0: No skin response was observed. • 1: Slight erythema was observed. • 2: Obvious erythema was observed. • 3: Strong erythema or slight edema/crust was observed. • 4: Obvious edema/crust, or more severe changes was observed.
(§2) Further, concentration dependencies of cumulative skin irritancy of RA and Am80 for the same application period were compared.

fibroblast cells = experiment: Acceleration of EGF-dependent growth of fibroblast cells; type: cell-based; conditions: low serum level
Experimental: The growth of fibroblast cells, being suspended under a low serum level, is dependent on growth factors, and the growth will start by the addition of EGF. The acceleration effects of RA and Am80 on the EGF-dependent growth were evaluated. RA gave the maximum effect (40% promotion) at 10^−6 M, and Am80 gave the maximum effect (30% promotion) at 10^−8 M. The acceleration effect of Am80 (10%) was also observed at 10^−10 Ml.

[2] = tested on: Normal human keratinocyte; experiment: Human keratinocyte growth (amount of DNA as index); type: cell-based; conditions: amount of DNA as index of HK growth
Experimental: (§3) Normal human keratinocyte obtained from human chest skin (HK, Kurabo) was cultured, and the cells were added with RA or Am80 (0.01% in dimethyl sulfoxide) on the second day. The cells on the second to 13th day after the addition of the agents were used as samples. By using the amount of DNA as an index of HK growth, and by using compositional ratio (K1/K16) of differentiated keratin (k1; 68 kD) and proliferating keratin (K16; 48 kD) in one-dimension SDS-PAGE as an index of differentiation, differentiation suppression rate was determined as a value wherein the ratio of the indexes of each sample and control applied only with a solvent was subtracted from 1. […] IC50 was 10^−6 to 10^−7 M for RA, and 10^−9 M for Am80.

[3] = reported in WO96/30009; cited from earlier work
skin grooves = experiment: Planarization action on skin surface formation (skin groove), silicon resin replicas and image analysis; type: in vivo, hairless mice; conditions: 0.01% in ethanol
Experimental: Changes which appear on skin grooves after applications of RA and Am80 (each at a concentration of 0.01% in ethanol) were studied by using hairless mice (Skh-h4l, 16 weeks old, female, 5 mice per group). The applications were conducted once a day, 5 days a week, and for 30 days. As a control, only ethanol was applied. On the next day of the day of last application, replicas of skin surfaces were created by using a silicon resin, and various parameters that represent features of the shape of the skin surface were determined by using an apparatus for image analysis. […] Further, the decrease in KSD correlated to epidermal thickening.

guinea pig skin [4] = experiment: Histological findings of guinea pig skin at the end of the application period; type: in vivo
Experimental: as §1, §2

[5] = tested on: Normal human keratinocyte; experiment: Human keratinocyte differentiation (K1/K16 keratin ratio, SDS-PAGE); type: cell-based
Experimental: as §3

horny layer = experiment: Horny layer turnover test (dansylchloride fluorescence); type: in vivo, guinea pig; conditions: 50 ppm, 10 μl/1 cm diameter, once a day (FIG. 3)
Experimental: Actions on turnover of horny layer were evaluated by using guinea pigs. Hartley albino male guinea pigs of approximately 750 g in weight, whose hair was removed using depilatory wax three days prior to the experiment, were applied occlusively with 5% Vaseline ointment of dansylchloride for 24 hours using a patch test Finn Chamber, and then the skin of the guinea pigs were wiped to remove the ointment. A portable fluorometer was used for irradiation with ultraviolet rays having maximum at around 338 nm, and the fluorescent intensity of the dansylchloride was measured. Simultaneously, fluorescent intensity of an area where dansylchloride was not applied (blank value) was measured in the same manner. After the measurement of the fluorescent intensities, 10 μl/1 cm diameter of RA and Am80 at 50 ppm concentration were applied once a day. During the measurement, skin irritancy was also determined according to the criteria indicated in Example 1. […] Cumulative skin irritancy was simultaneously evaluated according to the criteria in Example 1, and the results were obtained as shown in FIG. 4.

SMILES	irritancy threshold (cumulative skin irritancy) (guinea pig skin [1]; same application period, FIG. 2 (9th day of application))	Emax at 1 µM (fibroblast cells; Fibroblast, at 10^−6 M, read-out: maximum effect on EGF-dependent growth (promotion))	IC50 of cell growth suppression [2]	effect on dermatopathy caused by rays of sunlight [3]	skin responses (guinea pig skin [1]; 10 ppm or less, during this period (FIG. 2))	skin response compared with retinoic acid (guinea pig skin [1]; RA and Am80 at the same concentration (FIG. 1))	epidermal thickening (skin grooves; for 30 days (FIG. 6))	planarization changes of skin surface on replicas (skin grooves; once a day, 5 days a week, for 30 days)	Emax at 0.01 µM (fibroblast cells; Fibroblast, at 10^−8 M, read-out: maximum effect on EGF-dependent growth (promotion))	acceleration effect on EGF-dependent growth (fibroblast cells; at 10^−10 Ml)	IC50 ([2]; Homo sapiens, Keratinocyte, read-out: IC50 of cell growth suppression)	skin thickening and inflammatory changes compared with RA (guinea pig skin [4])	differentiation suppression rates as compared to that by RA ([5]; Am80 versus RA)	cell differentiation suppression action compared with RA ([5]; K1/K16 ratio as index of differentiation)	concentration at which cell differentiation suppression action is also observed ([5]; as low as)	action on horny cell layer turnover (horny layer)
CC1=C(/C=C/C(C)=C/C=C/C(C)=C/C(=O)O)C(C)(C)CCC1 [RA, retinoic acid, reference compound]	less than 5 ppm	40%	10^−6 to 10^−7 M	–	–	–	–	–	–	–	–	–	–	–	–	–
CC1(C)CCC(C)(C)c2cc(NC(=O)c3ccc(C(=O)O)cc3)ccc21 [Am80, 4-[(5,6,7,8-tetrahydro-5,5,8,8-tetramethyl-2-naphthalenyl)carbamoyl]benzoic acid]	–	–	–	ineffective	no skin responses	much weaker skin response than retinoic acid and induces extremely slow skin response	obvious changes	The same action was observed	30%	10%	1 nM	more slight skin thickening and inflammatory changes even when applied at 10 times higher concentration	1.3 to 1.7 times	stronger than that of RA	10^−8 to 10^−10 M	almost no effect
